The structures appear in SMILES notation. Counter-ions that a name gives are not always drawn.

One may read the melting point as the temperature, or range, at which the solid turns liquid. Take `CCOCCn1c(N2CCCN(CCC3(c4ccc(OC)c(OC)c4)CCN(C(=O)c4cc(OC)c(OC)c(OC)c4)C3)CC2)nc2ccccc21` (centres unmarked) (as salt: salt) [Example 1, 1-(3,4,5-Trimethoxybenzoyl)-3-(2-(4-(1-(2-ethoxyethyl)-1H-benzimidazol-2-yl)[1,4]diazepan-1-yl)ethyl)-3-(3,4-dimethoxyphenyl)pyrrolidine]: the melting point fell in the range of 90 to 100 °C.

As for `CCOCCn1c(N2CCCN(CCC3(c4ccccn4)CCN(C(=O)c4cc(OC)c(OC)c(OC)c4)C3)CC2)nc2ccccc21` (centres unmarked) [Example 32, 1-(3,4,5-Trimethoxybenzoyl)-3-(2-(4-(1-(2-ethoxyethyl)-1H-benzimidazol-2-yl)[1,4]diazepan-1-yl)ethyl)-3-(pyrid-2-yl)pyrrolidine], the melting point was in the range of 40 to 42 °C.

Source of the values: patent US6423704B1, “Substituted 4-(1H-benzimidazol-2-yl)[1,4]diazepanes useful for the treatment of allergic diseases” (Aventis Pharmaceuticals Inc., priority 1995, dated 2002).
